The record followed here is ChEMBL document CHEMBL5465560, “Selectivity Literature for EUbOPEN Chemogenomic Library” (2024).

Assay [1] deals with Mitogen-activated protein kinase kinase kinase 4 (Homo sapiens) (UniProt Q9Y6R4). As to the kind of experiment: Selectivity interaction (KinomeScan (DiscoverX)) EUB0000695a MAP3K4. The note with it: at 100 nM.
Assay [2] addresses T1, Serine/threonine-protein kinase D2 (Homo sapiens) (UniProt Q9BZL6).
T1 sequence (whole entry): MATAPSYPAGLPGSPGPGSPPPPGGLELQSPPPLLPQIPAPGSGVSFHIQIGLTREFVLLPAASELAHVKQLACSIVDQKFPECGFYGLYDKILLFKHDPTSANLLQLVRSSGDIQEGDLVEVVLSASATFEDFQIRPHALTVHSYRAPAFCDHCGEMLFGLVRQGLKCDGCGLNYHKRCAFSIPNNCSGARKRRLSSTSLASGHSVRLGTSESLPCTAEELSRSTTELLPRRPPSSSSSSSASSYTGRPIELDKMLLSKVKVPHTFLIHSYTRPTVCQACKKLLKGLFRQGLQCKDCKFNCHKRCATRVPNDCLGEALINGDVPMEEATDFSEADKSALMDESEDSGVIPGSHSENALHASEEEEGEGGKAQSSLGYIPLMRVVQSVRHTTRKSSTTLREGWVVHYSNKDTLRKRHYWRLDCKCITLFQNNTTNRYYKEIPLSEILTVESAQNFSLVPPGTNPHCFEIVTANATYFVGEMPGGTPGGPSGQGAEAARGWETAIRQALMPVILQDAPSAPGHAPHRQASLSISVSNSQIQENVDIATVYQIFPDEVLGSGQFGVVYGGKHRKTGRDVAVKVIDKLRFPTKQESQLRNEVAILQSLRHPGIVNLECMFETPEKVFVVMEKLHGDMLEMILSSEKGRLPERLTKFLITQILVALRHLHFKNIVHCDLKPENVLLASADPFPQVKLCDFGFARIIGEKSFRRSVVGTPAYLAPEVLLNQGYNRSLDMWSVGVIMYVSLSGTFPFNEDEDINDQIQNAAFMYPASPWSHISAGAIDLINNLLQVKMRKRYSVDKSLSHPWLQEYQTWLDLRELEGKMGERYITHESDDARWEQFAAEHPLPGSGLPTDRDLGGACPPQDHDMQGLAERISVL
Description: Selectivity interaction (Kinase panel (Invitrogen)) EUB0000639a PRKD2. The following applies: at 200 nM.

Assay [3] addresses T2, Serine/threonine-protein kinase ULK3 (Homo sapiens) (UniProt Q6PHR2).
T2 sequence (whole entry): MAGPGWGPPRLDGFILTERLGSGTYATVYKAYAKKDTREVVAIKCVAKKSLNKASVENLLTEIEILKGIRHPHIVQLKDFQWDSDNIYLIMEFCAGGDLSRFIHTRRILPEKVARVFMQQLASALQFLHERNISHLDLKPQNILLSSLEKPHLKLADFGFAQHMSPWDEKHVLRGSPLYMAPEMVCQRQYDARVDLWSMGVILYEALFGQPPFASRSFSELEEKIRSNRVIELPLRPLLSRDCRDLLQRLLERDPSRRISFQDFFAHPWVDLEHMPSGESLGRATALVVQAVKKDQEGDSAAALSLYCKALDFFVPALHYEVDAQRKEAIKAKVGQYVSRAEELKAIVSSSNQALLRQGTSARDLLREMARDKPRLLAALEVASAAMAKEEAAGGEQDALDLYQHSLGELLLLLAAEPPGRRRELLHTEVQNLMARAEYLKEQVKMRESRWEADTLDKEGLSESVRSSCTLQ
As to the kind of experiment: Selectivity interaction (ActivX KiNativ screen (kinase selectivity in THP-1 cell lysates)) EUB0000639a ULK3. The class given is subcellular. The following applies: lysate, at 0.01 µM.

The target in assay [4] is T3, Cyclin-G-associated kinase (Homo sapiens) (UniProt O14976).
T3 sequence (whole entry): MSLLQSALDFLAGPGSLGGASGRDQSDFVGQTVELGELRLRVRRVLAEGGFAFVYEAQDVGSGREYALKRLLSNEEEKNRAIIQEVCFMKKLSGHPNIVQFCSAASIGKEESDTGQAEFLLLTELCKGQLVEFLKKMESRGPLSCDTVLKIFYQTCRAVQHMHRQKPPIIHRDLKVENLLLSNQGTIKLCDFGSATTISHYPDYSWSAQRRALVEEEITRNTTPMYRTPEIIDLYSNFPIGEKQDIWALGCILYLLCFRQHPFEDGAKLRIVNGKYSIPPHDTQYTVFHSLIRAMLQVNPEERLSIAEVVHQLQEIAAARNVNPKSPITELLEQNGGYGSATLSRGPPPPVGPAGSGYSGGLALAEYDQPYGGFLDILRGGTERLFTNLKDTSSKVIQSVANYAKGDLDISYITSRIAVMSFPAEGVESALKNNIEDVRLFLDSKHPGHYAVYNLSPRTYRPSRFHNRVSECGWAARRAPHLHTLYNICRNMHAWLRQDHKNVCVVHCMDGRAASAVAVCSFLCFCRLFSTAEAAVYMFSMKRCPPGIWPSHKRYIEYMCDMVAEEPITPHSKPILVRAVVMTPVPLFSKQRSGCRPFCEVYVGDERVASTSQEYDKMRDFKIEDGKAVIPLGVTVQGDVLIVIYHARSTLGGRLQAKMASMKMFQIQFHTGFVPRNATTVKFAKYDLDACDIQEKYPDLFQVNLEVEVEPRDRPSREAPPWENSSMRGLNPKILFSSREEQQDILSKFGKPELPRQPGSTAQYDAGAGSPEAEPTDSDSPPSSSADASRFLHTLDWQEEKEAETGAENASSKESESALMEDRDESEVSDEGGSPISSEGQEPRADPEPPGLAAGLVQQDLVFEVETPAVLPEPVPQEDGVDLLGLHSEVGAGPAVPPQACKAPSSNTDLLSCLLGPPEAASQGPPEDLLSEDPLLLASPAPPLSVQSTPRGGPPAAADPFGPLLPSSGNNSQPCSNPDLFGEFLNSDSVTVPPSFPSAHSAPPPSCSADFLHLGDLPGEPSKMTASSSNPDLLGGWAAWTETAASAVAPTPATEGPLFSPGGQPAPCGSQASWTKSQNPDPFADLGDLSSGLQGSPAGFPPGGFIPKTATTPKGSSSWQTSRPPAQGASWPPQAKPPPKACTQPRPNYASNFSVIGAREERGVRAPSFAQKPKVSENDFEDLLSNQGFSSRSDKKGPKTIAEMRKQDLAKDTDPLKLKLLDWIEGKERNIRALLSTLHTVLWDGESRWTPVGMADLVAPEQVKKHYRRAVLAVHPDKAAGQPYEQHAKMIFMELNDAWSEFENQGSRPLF
As to the kind of experiment: Selectivity interaction (KinomeScan (DiscoverX)) EUB0001079a GAK. The note with it: at 1 µM.

Sequence of Mitogen-activated protein kinase kinase kinase 4 (Homo sapiens) (Q9Y6R4 whole entry): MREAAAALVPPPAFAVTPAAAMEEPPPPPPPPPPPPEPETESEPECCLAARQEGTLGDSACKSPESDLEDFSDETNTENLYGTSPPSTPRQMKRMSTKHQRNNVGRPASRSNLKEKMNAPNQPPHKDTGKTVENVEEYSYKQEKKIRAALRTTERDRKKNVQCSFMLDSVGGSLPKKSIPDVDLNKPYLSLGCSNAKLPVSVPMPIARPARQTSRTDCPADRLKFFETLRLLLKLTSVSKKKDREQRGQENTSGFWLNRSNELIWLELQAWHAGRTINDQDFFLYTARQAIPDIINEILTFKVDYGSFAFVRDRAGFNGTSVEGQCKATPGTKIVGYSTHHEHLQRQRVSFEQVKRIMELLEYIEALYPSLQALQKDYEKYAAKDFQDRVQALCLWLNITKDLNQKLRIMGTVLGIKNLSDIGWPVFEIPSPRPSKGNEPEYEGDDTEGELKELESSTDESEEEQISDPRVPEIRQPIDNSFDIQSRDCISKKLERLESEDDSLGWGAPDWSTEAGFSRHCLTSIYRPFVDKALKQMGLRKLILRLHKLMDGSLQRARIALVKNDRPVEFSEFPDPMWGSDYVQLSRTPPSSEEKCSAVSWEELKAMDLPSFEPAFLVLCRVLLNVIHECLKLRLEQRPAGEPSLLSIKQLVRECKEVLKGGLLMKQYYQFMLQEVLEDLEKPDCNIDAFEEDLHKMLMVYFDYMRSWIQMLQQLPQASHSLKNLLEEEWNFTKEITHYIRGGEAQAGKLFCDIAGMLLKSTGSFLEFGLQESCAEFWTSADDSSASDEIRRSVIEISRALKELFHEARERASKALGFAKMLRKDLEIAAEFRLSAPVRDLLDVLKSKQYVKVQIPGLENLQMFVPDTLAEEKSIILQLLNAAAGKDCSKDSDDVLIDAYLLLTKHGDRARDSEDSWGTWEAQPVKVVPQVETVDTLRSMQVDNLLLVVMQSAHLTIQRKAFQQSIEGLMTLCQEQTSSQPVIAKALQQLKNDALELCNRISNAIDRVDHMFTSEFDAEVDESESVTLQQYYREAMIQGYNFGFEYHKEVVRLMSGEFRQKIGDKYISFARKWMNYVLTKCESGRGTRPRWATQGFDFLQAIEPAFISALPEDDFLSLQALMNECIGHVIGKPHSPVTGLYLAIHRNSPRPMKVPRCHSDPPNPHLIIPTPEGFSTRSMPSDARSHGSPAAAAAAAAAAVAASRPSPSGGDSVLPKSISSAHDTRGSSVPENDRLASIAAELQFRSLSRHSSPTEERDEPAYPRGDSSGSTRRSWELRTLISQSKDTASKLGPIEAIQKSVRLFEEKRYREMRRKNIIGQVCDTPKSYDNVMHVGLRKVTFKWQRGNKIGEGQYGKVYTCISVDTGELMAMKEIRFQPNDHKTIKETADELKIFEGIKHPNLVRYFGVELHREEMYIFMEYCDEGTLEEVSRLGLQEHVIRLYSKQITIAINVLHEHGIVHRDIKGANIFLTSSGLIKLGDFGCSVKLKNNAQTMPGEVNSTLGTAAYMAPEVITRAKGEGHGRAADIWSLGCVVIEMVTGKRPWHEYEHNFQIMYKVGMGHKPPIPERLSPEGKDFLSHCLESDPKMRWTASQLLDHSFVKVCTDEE

`Cc1cc(F)c(C(=O)Nc2cccc(-c3nncn3C(C)C)n2)cc1-n1cnc(C2CC2)c1` showed a % of control in assay [1] of 92%.

With `CC[C@@H]1[C@H](F)C(=O)N[C@@H]1COc1nccc2cc(C(N)=O)c(OC)cc12` [ZIMLOVISERTIB], the % of inhibition in assay [2] was 5.6%; in assay [3] it was -8.9%.

In assay [4], `Nc1cnc(N2CCc3cc(S(=O)(=O)Nc4c(F)cc(Cl)cc4F)cc(N4CCCC4=O)c32)nc1` [TP-020n] displayed a % of control of 100%.
